Assays:
Cannabinoid receptor 1 = Cannabinoid receptor 1 (Homo sapiens, UniProt P21554); test: Displacement of [3H]CP 55940 from human CB1 receptor in cell free system
Cannabinoid receptor 2 = Cannabinoid receptor 2 (Homo sapiens, UniProt P34972); test: Displacement of [3H]CP 55940 from human CB2 receptor in cell free system; conditions: read-out: Ki
Homo sapiens = organism: Homo sapiens; test: Selectivity ratio of Ki for human CB1 to Ki for human CB2

Chain of Cannabinoid receptor 1 (P21554 whole entry): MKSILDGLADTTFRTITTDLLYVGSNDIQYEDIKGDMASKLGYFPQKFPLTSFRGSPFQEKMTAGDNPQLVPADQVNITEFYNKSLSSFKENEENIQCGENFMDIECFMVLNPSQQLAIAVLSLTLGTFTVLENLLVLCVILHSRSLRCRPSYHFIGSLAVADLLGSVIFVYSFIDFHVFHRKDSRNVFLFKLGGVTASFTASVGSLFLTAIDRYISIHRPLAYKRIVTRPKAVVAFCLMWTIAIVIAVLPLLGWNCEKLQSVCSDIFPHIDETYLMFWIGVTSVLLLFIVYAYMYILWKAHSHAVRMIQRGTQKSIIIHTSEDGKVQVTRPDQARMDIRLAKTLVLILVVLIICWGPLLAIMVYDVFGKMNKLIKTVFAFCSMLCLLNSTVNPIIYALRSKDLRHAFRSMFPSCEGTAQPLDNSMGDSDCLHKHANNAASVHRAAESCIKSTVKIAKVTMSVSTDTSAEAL
Chain of Cannabinoid receptor 2 (P34972 whole entry): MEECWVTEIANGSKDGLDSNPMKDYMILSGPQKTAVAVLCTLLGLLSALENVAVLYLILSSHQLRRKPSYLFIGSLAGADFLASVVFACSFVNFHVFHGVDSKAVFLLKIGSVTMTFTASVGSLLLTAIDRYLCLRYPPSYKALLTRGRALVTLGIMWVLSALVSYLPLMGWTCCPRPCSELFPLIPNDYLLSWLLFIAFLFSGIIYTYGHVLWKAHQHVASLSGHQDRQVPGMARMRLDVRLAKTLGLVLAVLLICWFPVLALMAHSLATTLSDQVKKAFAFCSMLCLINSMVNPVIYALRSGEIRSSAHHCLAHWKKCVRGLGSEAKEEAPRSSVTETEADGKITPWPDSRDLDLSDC

SMILES	Ki (Cannabinoid receptor 1)	Ki (Cannabinoid receptor 2)	log(ratioKi) (Homo sapiens)
Cc1nc(C(=O)NC23CC4CC(CC2C4)C3)c(C)n1-c1ccccc1	5440 nM	9.7 nM	2.74
CCCCCn1cc(C(=O)NC23CC4CC(CC(C4)C2)C3)c(=O)c2cccc(C)c21	> 10000 nM	4.9 nM	> 3.3
CCCCCCC1(c2cc(O)c3c(c2)OC(C)(C)[C@@H]2CC=C(C)C[C@@H]32)CC1(Cl)Cl (stereo not given in full)	1.8 nM	1.3 nM	0.19
Cc1ccc2c(=O)c(C(=O)NC3CCCC3)cn(CCN3CCOCC3)c2n1	1000 nM	50 nM	1.3
CCCCCCn1cc(C(=O)NC2CCCCC2)c(=O)c2ccc(C)nc21	95 nM	8 nM	1.07
CCC(C)(C)C(=O)Cc1cc(C)c(C)c(S(=O)(=O)N2CCCCCC2)c1	1800 nM	9 nM	2.3
Cc1c(C(C)(C)C)s/c(=N\C(=O)c2ccc(OC(F)(F)F)cc2)n1CC1CC1	1100 nM	5.7 nM	2.28
Cc1c(C(C)(C)C)s/c(=N\C(=O)c2ccc(Br)cc2)n1CC1CC1	53 nM	1.2 nM	1.6
CCC1CCC(C(=O)c2cn(CCN3CCOCC3)c3ccccc23)CC1 (stereo not given)	616 nM	16 nM	1.58
Cc1c(C(C)(C)C)s/c(=N\S(=O)(=O)c2cccc3ccccc23)n1C1CC1	1700 nM	16 nM	2.02
